From patent publication US20100216779A1 (GLAXOSMITHKLINE LLC, priority 2007, published 2010)

Columns and labels:
[1] = system: COLO205 (colon); assay: Inhibition of cell proliferation, CellTiter-Glo, COLO205; assay type: cell-based; settings: Homo sapiens, COLO 205, 72 h
Outline: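 Exponentially growing COLO205 cells in medium with 10% FBS were plated below 2000 cells/well at 37 °C, 5% CO2. Untreated wells served as controls.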

[2] = system: NCI-H929 (multiple myeloma); assay: Inhibition of cell proliferation, CellTiter-Glo, NCI-H929; assay type: cell-based; settings: Homo sapiens, 72 h
Outline: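 Cells were grown in medium with 10% FBS at 37° C, 5% CO2. Cell number was read as CellTiter-Glo luminescence (cellular ATP), with untreated wells as control.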

[3] = biological target: T1, human IGF-1R (NIH-3T3 cells over expressing human IGF-1R) (Homo sapiens, UniProt P08069); assay: IGF-1R cellular autophosphorylation (DELFIA); assay type: cell-based; settings: IGF-1 stimulated
T1 construct: expressed in transfected cells; host or cells: NIH-3T3 (mouse fibroblasts)
Outline: (§1)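 Autophosphorylation of IGF-1R or IR is measured in NIH-3T3 lines overexpressing each human receptor after 2 h compound pretreatment and a 15 min ligand challenge (IGF-1 30 ng/mL; insulin 3 ug/mL). Fluorescence is normalised to 100% stimulation.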

[4] = biological target: T2, IR (NIH-3T3 cells over expressing human IGF-1R or IR) (Homo sapiens, UniProt P06213); assay: IR cellular autophosphorylation (DELFIA); assay type: cell-based; settings: NIH-3T3 cells over expressing IR, insulin stimulated
T2 construct: expressed in transfected cells; host or cells: NIH-3T3 (mouse fibroblasts)
Outline: as §1

[5] = system: BT474 cell tumors (breast carcinoma cell line); assay: In vivo efficacy, BT474 tumor bearing mice; set-up: species or system mouse
Description: In addition to the LISN xenograft efficacy studies, Example 57 has also been assessed in vivo in two other mouse models of cancer, including: Colo-205 tumor bearing mice (colon carcinoma cell line) and BT474 tumor bearing mice (breast carcinoma cell line). Forty female nude mice bearing Colo-205 tumors (average tumor size of 200 mm3) were randomized into five groups of eight mice and dosed with either vehicle (20% SBE pH3.5) or Example 57 at 100, 30, 10 mg/kg QD or 30 mg/kg BID for 21 days. The groups of mice dosed with the higher doses of Example 57 (100 mg/kg QD and 30 mg/kg BID) lost greater than 20% body weight within 10 days of dosing so were taken off the study and allowed to recover. […] The higher doses of 100 mg/kg QDx10 and 30 mg/kg BIDx10 achieved 72 and 49% tumor growth inhibition respectively.
Due to the body weight loss seen with the higher doses in the Colo-205 xenograft efficacy study, the dosing regime was altered for the follow up BT474 study. Forty female nude mice bearing subcutaneous BT474 cell tumors (average tumor size of 200 mm3) were randomized into five groups each containing eight mice and dosed with either vehicle (20% SBE pH3.5) or Example 57 at 60, 30 or 15 mg/kg QD or 15 mg/kg BID for 21 days. Note the maximal QD dose was reduced from 100 mg/kg to 60 mg/kg and the BID dose reduced from 30 mg/kg to 15 mg/kg. In addition to these changes the mice in this study were given weekend holidays from dosing.

T2 sequence (P06213 28-1382): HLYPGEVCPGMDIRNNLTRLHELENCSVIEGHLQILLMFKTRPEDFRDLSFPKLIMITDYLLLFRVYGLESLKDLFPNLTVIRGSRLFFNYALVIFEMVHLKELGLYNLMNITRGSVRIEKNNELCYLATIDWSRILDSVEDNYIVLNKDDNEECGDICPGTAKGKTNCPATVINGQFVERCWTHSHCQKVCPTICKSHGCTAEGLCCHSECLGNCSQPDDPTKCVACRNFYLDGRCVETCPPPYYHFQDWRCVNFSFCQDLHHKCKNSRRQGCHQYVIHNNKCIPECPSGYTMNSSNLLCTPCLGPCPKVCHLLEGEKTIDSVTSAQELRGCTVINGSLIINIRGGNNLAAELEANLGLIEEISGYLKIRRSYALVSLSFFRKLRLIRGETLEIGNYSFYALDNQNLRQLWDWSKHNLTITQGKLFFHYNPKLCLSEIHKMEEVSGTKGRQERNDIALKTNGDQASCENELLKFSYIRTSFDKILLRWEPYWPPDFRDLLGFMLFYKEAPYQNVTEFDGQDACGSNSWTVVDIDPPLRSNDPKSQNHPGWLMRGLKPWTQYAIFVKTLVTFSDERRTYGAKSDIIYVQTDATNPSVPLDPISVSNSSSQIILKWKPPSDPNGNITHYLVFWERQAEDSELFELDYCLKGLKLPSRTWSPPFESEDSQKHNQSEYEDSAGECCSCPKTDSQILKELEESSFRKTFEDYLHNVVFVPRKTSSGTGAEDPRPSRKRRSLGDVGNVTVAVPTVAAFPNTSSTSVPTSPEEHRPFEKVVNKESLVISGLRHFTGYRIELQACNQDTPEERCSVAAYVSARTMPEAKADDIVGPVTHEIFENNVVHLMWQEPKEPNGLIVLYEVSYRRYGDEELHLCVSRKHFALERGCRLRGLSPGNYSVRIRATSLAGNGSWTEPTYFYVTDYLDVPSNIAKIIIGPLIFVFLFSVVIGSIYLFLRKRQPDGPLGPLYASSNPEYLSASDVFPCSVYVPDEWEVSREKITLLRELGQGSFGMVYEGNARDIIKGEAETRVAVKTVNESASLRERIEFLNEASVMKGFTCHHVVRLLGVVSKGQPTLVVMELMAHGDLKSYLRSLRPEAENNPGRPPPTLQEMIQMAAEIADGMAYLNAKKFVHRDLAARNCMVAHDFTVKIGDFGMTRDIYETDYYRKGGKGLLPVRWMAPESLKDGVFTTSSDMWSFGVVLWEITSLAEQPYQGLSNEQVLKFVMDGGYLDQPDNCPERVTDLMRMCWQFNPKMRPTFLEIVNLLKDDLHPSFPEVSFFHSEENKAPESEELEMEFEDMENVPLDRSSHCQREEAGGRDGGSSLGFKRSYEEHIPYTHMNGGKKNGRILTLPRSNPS
T1 sequence (P08069 31-1367): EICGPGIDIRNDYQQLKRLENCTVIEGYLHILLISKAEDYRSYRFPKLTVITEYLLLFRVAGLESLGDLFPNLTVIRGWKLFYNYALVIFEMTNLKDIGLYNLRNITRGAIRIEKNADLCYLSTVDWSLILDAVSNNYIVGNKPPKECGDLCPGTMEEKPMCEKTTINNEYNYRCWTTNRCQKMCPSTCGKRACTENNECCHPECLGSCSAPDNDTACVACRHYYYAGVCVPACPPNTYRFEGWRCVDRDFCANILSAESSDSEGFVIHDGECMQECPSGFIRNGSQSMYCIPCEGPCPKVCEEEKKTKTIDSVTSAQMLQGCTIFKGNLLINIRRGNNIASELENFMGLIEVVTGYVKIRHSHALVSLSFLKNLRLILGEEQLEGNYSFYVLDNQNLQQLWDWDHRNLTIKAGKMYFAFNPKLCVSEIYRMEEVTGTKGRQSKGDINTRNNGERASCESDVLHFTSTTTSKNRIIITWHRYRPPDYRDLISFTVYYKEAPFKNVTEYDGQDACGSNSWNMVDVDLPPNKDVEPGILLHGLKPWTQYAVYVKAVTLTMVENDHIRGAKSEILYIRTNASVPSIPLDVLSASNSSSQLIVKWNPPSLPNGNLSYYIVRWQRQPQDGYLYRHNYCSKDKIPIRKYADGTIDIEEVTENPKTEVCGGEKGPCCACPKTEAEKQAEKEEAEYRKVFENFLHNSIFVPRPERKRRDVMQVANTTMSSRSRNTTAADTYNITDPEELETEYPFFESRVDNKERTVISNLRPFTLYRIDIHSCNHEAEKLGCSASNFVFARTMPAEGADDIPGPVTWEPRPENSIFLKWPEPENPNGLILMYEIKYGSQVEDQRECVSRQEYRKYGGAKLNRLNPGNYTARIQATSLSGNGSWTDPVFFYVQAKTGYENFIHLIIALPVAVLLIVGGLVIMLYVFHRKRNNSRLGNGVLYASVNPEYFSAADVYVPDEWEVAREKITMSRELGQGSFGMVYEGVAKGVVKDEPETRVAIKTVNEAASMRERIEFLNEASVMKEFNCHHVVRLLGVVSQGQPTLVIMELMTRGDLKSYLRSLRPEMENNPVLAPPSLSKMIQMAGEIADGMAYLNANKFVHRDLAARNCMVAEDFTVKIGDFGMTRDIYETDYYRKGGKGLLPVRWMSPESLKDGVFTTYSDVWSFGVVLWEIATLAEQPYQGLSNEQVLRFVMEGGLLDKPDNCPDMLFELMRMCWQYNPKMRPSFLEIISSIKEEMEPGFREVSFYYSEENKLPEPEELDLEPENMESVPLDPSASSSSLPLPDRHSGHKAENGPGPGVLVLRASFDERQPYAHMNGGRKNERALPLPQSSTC

Row | IC50 [1] [nM] | IC50 [2] [nM] | IC50 [3] [nM] | IC50 [4] [nM] | SMILES | tumor growth inhibition ([5]; BT474, 15 mg/kg BIDx21, weekend holidays from dosing) [%] | tumor growth inhibition ([5]; BT474, 30 mg/kg QDx21, weekend holidays from dosing) [%] | tumor growth inhibition ([5]; BT474, 60 mg/kg QDx21, weekend holidays from dosing) [%] | body weight loss ([5]; BT474, all groups) | tumor growth inhibition ([5]; BT474, third QDx21 dose group (15 mg/kg QD per study design), weekend holidays from dosing) [%]
1 | 250 to 1000 | < 250 | < 100 | < 100 | COc1cc(N2CCC(N3CCCCC3)CC2)ccc1Nc1nccc(-c2c(-c3cccc(C(=O)Nc4c(F)cccc4F)c3)nc3ccccn23)n1 [Example 22, 3-[3-(2-{[4-(1,4′-bipiperidin-1′-yl)-2-(methyloxy)phenyl]amino}-4-pyrimidinyl)imidazo[1,2-a]pyridin-2-yl]-N-(2,6-difluorophenyl)benzamide] |  |  |  |  | 
2 | 250 to 1000 | < 250 | < 100 | < 100 | COc1cc(N2CCC(N3CCN(CCF)CC3)CC2)ccc1Nc1nccc(-c2c(-c3cccc(C(=O)Nc4c(F)cccc4F)c3)nc3ccccn23)n1 [Example 57, N-(2,6-difluorophenyl)-3-[3-(2-{[4-{4-[4-(2-fluoroethyl)-1-piperazinyl]-1-piperidinyl}-2-(methyloxy)phenyl]amino}-4-pyrimidinyl)imidazo[1,2-a]pyridin-2-yl]benzamide] | 54 | 37 | 37 | no body weight loss | 16
